Drawing on paper PMC11145868, “Protein target similarity is positive predictor of in vitro antipathogenic activity: a drug repurposing strategy for Plasmodium falciparum” (Journal of Cheminformatics, 2024), this text covers EC50 and CC50 for 27 molecules.

In series [1] the test system is P. falciparum Dd2-HLH. In words: microbe, parasite or virus in culture. As to conditions: Plasmodium falciparum. Format: cell-based, Plasmodium falciparum.
In series [2] the test system is P. falciparum Dd2-HLH. Briefly: microbe, parasite or virus in culture. It counts as cell-based, Plasmodium falciparum. As to conditions: Plasmodium falciparum, DD2, 72 h, read-out: Blood stage 72h EC50.
For series [3], the system named is P. berghei-luciferase sporozoites. Briefly: microbe, parasite or virus in culture. As to conditions: Plasmodium berghei. It counts as cell-based, Plasmodium berghei.
The nature of series [4]: Mammalian cell cytotoxicity assay, HEK293T (CellTiter-Glo, 72 h). As to conditions: human, HEK293T cells. For orientation: In ATP-based viability assays light output follows the ATP content of the culture.
Where [5] appears, read: DD2, 48 h, read-out: Blood stage 48h EC50.
Setting [6] is: HepG2, liver-stage parasites, 48 hours in culture, read-out: Liver stage 48h EC50.
Where [7] appears, read: DD2, read-out: EC50 (antiplasmodial, quoted in discussion from Supplementary Table 1).

SMILES strings stand for the structures. Where a name gives a salt, the structure may show the parent alone. Read-outs that look alike come from different tables or passages of the source.

Usually EC50 stands for the concentration at which the effect is half-maximal. Usually CC50 stands for the concentration that lowers cell viability or growth by half. Low readings indicate greater toxicity to the cells, high ones lower toxicity to the cells.

For the molecule `CC[C@H](NC(=O)[C@H](C)NC)C(=O)N1C[C@@H](O)C[C@H]1Cc1c(-c2[nH]c3cc(F)ccc3c2C[C@@H]2C[C@H](O)CN2C(=O)[C@H](CC)NC(=O)[C@H](C)NC)[nH]c2cc(F)ccc12` [Birin/apant], the EC50 in series [1] (setting [5]) is 190 nM; in series [2] it was 603 nM; in series [3] (setting [6]), > 10000 nM. Moreover, the CC50 at 72 h in series [4] was > 9950 nM.
As for `CNCCCC1c2ccccc2C=Cc2ccccc21` [Protriptyline hydrochloride], the EC50 was 430 nM in series [1] (setting [5]); 959 nM in series [2]; > 10000 nM in series [3] (HepG2, 48 h, read-out: Liver stage 48h EC50). Besides, the CC50 at 72 h in series [4] is > 9950 nM.
As for `COCCN1CCN(Cc2ccc(-c3n[nH]c4c3C(=O)c3c(NC(=O)NN5CCOCC5)cccc3-4)cc2)CC1` [RGB-286638], the EC50 in series [1] (setting [5]) amounted to 138 nM; in series [2] it was 300 nM; in series [3] (setting [6]) it was 87 nM. This molecule also had a CC50 at 72 h in series [4] of 58 nM.
The corresponding values for `OC(CCN1CCCC1)(c1ccccc1)C1CCCCC1` (stereo not drawn) [Procyclidine hydrochloride] are 594 nM, 437 nM, > 10000 nM and > 9950 nM.
Turning to `CC(C)(C)NC[C@H](O)COc1ccccc1C1CCCC1` [Penbutolol], the EC50 in series [1] (setting [5]) amounted to 418 nM; in series [2], 980 nM; in series [3] (setting [6]), 20000 nM. The CC50 at 72 h in series [4] was > 9950 nM.
The corresponding values for `COc1ccc(C(=O)c2cn(C(C)C)c3ncnc(N)c23)cc1NC(=O)Nc1ccc(Cl)cc1Cl` [CE-245677] are 619 nM, 810 nM, 3330 nM and > 9950 nM.
Take `O=C1c2c(O)ccc(O)c2C(=O)c2c(NCCNCCO)ccc(NCCNCCO)c21` [Mitoxantrone]: the EC50 was determined as 239 nM in series [1] (setting [5]), 357 nM in series [2] and 1720 nM in series [3] (setting [6]). In addition, half-maximal cytotoxicity in series [4] (CC50 at 72 h) was put at 217 nM.
Take `COCCn1c2c([n+](Cc3cnccn3)c1C)C(=O)c1ccccc1C2=O` [Sepantronium bromide]: the EC50 in series [1] (setting [5]) was 21 nM; in series [2], 82 nM; in series [3] (setting [6]), 10 nM. The same molecule registered a CC50 at 72 h in series [4] of 56 nM.
Regarding `CCOC(=O)[C@H]1O[C@@H]1C(=O)N[C@@H](CC(C)C)C(=O)NCCC(C)C` [aloxistatin, reference compound], the EC50 is 31 nM in series [1] (setting [7]), 69 nM in series [2] and > 10000 nM in series [3] (setting [6]). The CC50 at 72 h in series [4] was > 9950 nM.
In the case of `CC[C@]1(O)C[C@@H]2CN(CCc3c([nH]c4ccccc34)[C@@](C(=O)OC)(c3cc4c(cc3OC)N(C)[C@H]3[C@@](O)(C(=O)OC)[C@H](OC(C)=O)[C@]5(CC)C=CCN6CC[C@]43[C@@H]65)C2)C1` [Vinblastine sulfate], the EC50 in series [1] (setting [5]) was determined as 29 nM; in series [2], 24 nM; in series [3] (setting [6]), 1100 nM. In series [4], this molecule registered a CC50 at 72 h of 102 nM.
On to `Cn1cc(CNCC2CCN(c3ncc(C(=O)NO)cn3)CC2)c2ccccc21` [Quisinostat, reference compound], for which the EC50 in series [1] (DD2, Hec50, 48 h, read-out: Blood stage 48 h EC50) is 1 nM; in series [2], 3 nM; in series [3] (liver-stage parasites, 48 h in culture, read-out: Liver 48 h EC50), 8 nM. Also, in series [4], the CC50 at 72 h was 33 nM.
As for `O=C(/C=C/c1cccc(S(=O)(=O)Nc2ccccc2)c1)NO` [Belinostat], the EC50 was found to be 90 nM in series [1] (setting [5]), 188 nM in series [2] and 1830 nM in series [3] (setting [6]). Besides, the CC50 at 72 h in series [4] came out at 1290 nM.
Taken in the same sequence, the figures for `CN(C)c1ccc2nc3ccc(=[N+](C)C)cc-3sc2c1` [Methylthioninium Chloride] were 67 nM, 118 nM, 1050 nM and 1770 nM.
With `C#Cc1cccc(Nc2ncnc3cc(OC)c(OCCCCCCC(=O)NO)cc23)c1` [CUDC-101], the EC50 in series [1] (setting [5]) was found to be 41 nM; in series [2], 52 nM; in series [3] (setting [6]) it was 349 nM. This molecule also came in with a CC50 at 72 h in series [4] of 408 nM.
The corresponding values for `CN(C)c1ccc(C(=C2C=CC(=[N+](C)C)C=C2)c2ccc(N(C)C)cc2)cc1` [Gentian violet] are 104 nM, 456 nM, 214 nM and 136 nM.
The corresponding values for `O=C(CCCCCCNC(=O)c1cnc(N(c2ccccc2)c2ccccc2)nc1)NO` [Ricolinostat] are 555 nM, 770 nM, 4370 nM and > 9950 nM.
For `COc1ncc(-c2ccc3nccc(-c4ccnnc4)c3c2)cc1NS(=O)(=O)c1ccc(F)cc1F` [omipalisib, reference compound], the EC50 was determined as 159 nM in series [1] (setting [7]), 158 nM in series [2] and 230 nM in series [3] (setting [6]). The molecule further showed a CC50 at 72 h in series [4] of 46 nM.
For the molecule `CCN(CC)CCN(Cc1ccc(-c2ccc(C(F)(F)F)cc2)cc1)C(=O)Cn1c(SCc2ccc(F)cc2)nc(=O)c2c1CCC2` [Darapladib], the EC50 in series [1] (setting [5]) was 515 nM; in series [2], 850 nM; in series [3] (setting [6]), 2880 nM. Half-maximal cytotoxicity in series [4] (CC50 at 72 h) was put at 1730 nM.
Taken in the same sequence, the figures for `O=C(NC1CCN(CCCCC2(C(=O)NCC(F)(F)F)c3ccccc3-c3ccccc32)CC1)c1ccccc1-c1ccc(C(F)(F)F)cc1` [Lomitapide] were 277 nM, 820 nM, 2250 nM and 791 nM.
Taken in the same sequence, the figures for `CNC(=O)[C@H](Cc1ccccc1)NC(=O)[C@H](CC(C)C)[C@H](CSc1cccs1)C(=O)NO` [Batimastat] were 95 nM, 165 nM, > 10000 nM and > 9950 nM.
Taken in the same sequence, the figures for `COc1cc2ncnc(Nc3ccc(F)c(Cl)c3)c2cc1NC(=O)/C=C/CN1CCCCC1` [Dacomitinib] were 540 nM, 953 nM, 596 nM and 2620 nM.
On to `CCOc1cc2ncc(C#N)c(Nc3ccc(OCc4cccc(F)c4)c(Cl)c3)c2cc1NC(=O)/C=C/CN(C)C` [HKI-357], for which the EC50 in series [1] (setting [5]) worked out at 212 nM; in series [2], 619 nM; in series [3] (setting [6]), 573 nM. The CC50 at 72 h in series [4] worked out at 1720 nM.
Taken in the same sequence, the figures for `CCNC(=O)c1noc(-c2cc(C(C)C)c(O)cc2O)c1-c1ccc(CN2CCOCC2)cc1` [Luminespib] were 38 nM, 40 nM, 29 nM and 11 nM.
For `Cc1c(-c2ccc(O)cc2)n(Cc2ccc(OCCN3CCCCCC3)cc2)c2ccc(O)cc12` [Bazedoxifene Acetate], the EC50 was 192 nM in series [1] (setting [5]), 636 nM in series [2] and 5560 nM in series [3] (setting [6]). Moreover, in series [4], half-maximal cytotoxicity (CC50 at 72 h) was put at 3040 nM.
Taken in the same sequence, the figures for `CCc1cc2c(cc1N1CCC(N3CCOCC3)CC1)C(C)(C)c1[nH]c3cc(C#N)ccc3c1C2=O` [Alectinib Hydrochloride] were 907 nM, 926 nM, 152 nM and 797 nM.
`CS(=O)(=O)CCNCc1ccc(-c2ccc3ncnc(Nc4ccc(OCc5cccc(F)c5)c(Cl)c4)c3c2)o1` [Lapatinib]: the EC50 in series [1] (setting [5]) stood at 300 nM; in series [2], 519 nM; in series [3] (setting [6]), 4220 nM. The CC50 at 72 h in series [4] was > 9950 nM.
As to `CN(C)Cc1c(C(=O)NCCOc2ccc(C(=O)NO)cc2)oc2ccccc12` [Abexinostat], the figures for the EC50 in series [1] (setting [5]), in series [2] and in series [3] (setting [6]) were 51 nM, 91 nM and 1190 nM, respectively. This molecule also returned a CC50 at 72 h in series [4] of 376 nM.
